Converted amounts (≈) assume the structure as drawn. Where two headings read alike, the source gives them in different places.

Data on 2 molecules can be found in patent US10556922B2, “Crystalline and amorphous forms of 17-alpha-hydroxyprogesterone caproate” (AMAG Pharmaceuticals, Inc., priority 2015, dated 2020).

Data set [1] in a line: Solubility of crystalline HPC in organic solvents. As to conditions: organic solvent or mixture, 25° C. The format is physicochemical.
A short description of data set [2]: Solution-mediated transformation studies (relative physical stability of Form A and Form B versus temperature). The format is physicochemical. How it is done:
Solution-mediated transformation studies were conducted to establish the relative physical stability of Form A and Form B versus temperature. Excess solid was suspended in a slurry using various solvents, including mixtures of benzyl benzoate and castor oil. After equilibration times of 1 day to two weeks, the excess solid was filtered and analyzed by powder x-ray diffraction to determine the crystalline form.

A word on the solubility: it is how much of the substance goes into solution per volume. Consider `CCCCCC(=O)O[C@]1(C(C)=O)CC[C@H]2[C@@H]3CCC4=CC(=O)CC[C@]4(C)[C@H]3CC[C@@]21C` [Form A, 17-α-hydroxyprogesterone caproate], for which the solubility is approximately 118 mg/mL (≈ 275 mM) in data set [1] (ethanol, read-out: solubility in ethanol); approximately 419 mg/mL (≈ 978 mM) in data set [1] (ethyl acetate, read-out: solubility in ethyl acetate); approximately 91 mg/mL (≈ 212 mM) in data set [1] (isopropanol, read-out: solubility in isopropanol); approximately 142 mg/mL (≈ 331 mM) in data set [1] (methanol, read-out: solubility in methanol). Further, the relative physical stability entry in data set [2] (above 35° C.) was “more stable (less soluble)”.
As for `CCCCCC(=O)O[C@]1(C(C)=O)CC[C@H]2[C@@H]3CCC4=CC(=O)CC[C@]4(C)[C@H]3CC[C@@]21C` [Form B, 17-α-hydroxyprogesterone caproate], the relative physical stability result in data set [2] (below 27° C.) was “more stable (less soluble)”; in data set [2] (below room temperature, additional studies), “likely to be more stable”. For the same molecule, in data set [2] (storage temperatures of room temperature (20-25° C.) or below (refrigeration)), the “physical stability on storage” value was “physically stable polymorph”.
